Assays:
Culex fatigans larvae = experiment: LC50 to Culex fatigans larvae; format: in vivo, Culex pipiens quinquefasciatus Say
Source text: (§1) World Health Org. 363 (1971). […] Food Chem. 1145 (1970). […] Sci. Tech. 709 (1971). The results are detailed in Table II. ##SPC1##

Musca domestica Rsp = experiment: Topical LD50 to adult female RSP houseflies; conditions: for LD50: Musca domestica, read-out: Topical LD50, Musca domestica Rsp, Alone; for LD50 / Topical LD50, Musca domestica Rsp, with pb: topical; for Topical LD50, Musca domestica Rsp, with pb: RSP strain, synergized with piperonyl butoxide; for SR, Musca domestica Rsp: synergistic ratio: LD50 alone/LD50 synergized with piperonyl butoxide
Description: (§2) The compounds of the present invention were tested for insecticidal activity by standard methods, and compared with the insecticidal activities of DDT and symmetrical analogs of DDT, such methoxychlor. Toxicological methods for the determination of the topical LD50 values to adult female SNAIDM and RSP houseflies, Musca domestica L. and to Phormia regina, and LC50 values to Culex pipiens quinquefasciatus Say, and Anopheles albimanus Weid mosquitoes were described by Metcalf el al., 44 Bull. World Health Org. 363 (1971). The methods for evaluation of metabolism by mouse liver homogenate and by female RSP housefly and salt-marsh caterpillar larvae Estigmene acrea Drury, were described by Kapoor et al., 18 J. Agr. Food Chem. 1145 (1970). The techniques for model eocsystem evluation were described by Metcalf et al., 5 J. Environ. Sci. Tech. 709 (1971).
(§3) Since piperonyl butoxide serves to block the action of MFO, the synergized LD50 values express the intrinsic toxicity of the compounds. With the detoxifying action of MFO enzymes blocked, the intrinsic toxicity of the compounds can thus be measured.

[1] = test system: Anopheles albimanus larvae; experiment: LC50 to Anopheles albimanus larvae; format: in vivo, Anopheles albimanus Weid
Source text: as §1

Musca domestica Snaidm = experiment: Topical LD50 to adult female SNAIDM houseflies; conditions: for LD50: Musca domestica, read-out: Topical LD50, Musca domestica Snaidm, Alone; for LD50 / Topical LD50, Musca domestica Snaidm, with pb: topical; for Topical LD50, Musca domestica Snaidm, with pb: SNAIDM strain, synergized with piperonyl butoxide; for SR, Musca domestica Snaidm: synergistic ratio: LD50 alone/LD50 synergized with piperonyl butoxide
Description: as §2, §3

Phormia regina = experiment: whole plant or invertebrate; conditions: for LD50: Phormia regina, read-out: Topical LD50, Phormia regina, Alone; for LD50 / Topical LD50, Phormia regina, with pb: topical; for SR, Phormia regina: synergistic ratio: LD50 alone/LD50 synergized with piperonyl butoxide; for Topical LD50, Phormia regina, with pb: synergized with piperonyl butoxide
Description: as §2, with “363 (1971).” left out, “Food Chem. 1145 (1970).” left out, “Tech.” for “Tech. 709 (1971).”
as §3

Row | Structure (SMILES) | LC50 Culex fatigans larvae (Culex fatigans larvae) | LD50 (Musca domestica Rsp) | Topical LD50, Musca domestica Rsp, with pb (Musca domestica Rsp) | SR, Musca domestica Rsp (Musca domestica Rsp) | LC50 Anopheles albimanus larvae [1] | LD50 (Musca domestica Snaidm) | Topical LD50, Musca domestica Snaidm, with pb (Musca domestica Snaidm) | SR, Musca domestica Snaidm (Musca domestica Snaidm) | LD50 (Phormia regina) | SR, Phormia regina (Phormia regina) | Topical LD50, Phormia regina, with pb (Phormia regina)
1 | COc1ccc(C(Nc2ccc(C)cc2)C(Cl)(Cl)Cl)cc1 (stereo not shown) [IX] | 0.26 ppm | 50 mg/kg | 12.0 μg per g | 4.5 | 0.28 ppm | 35 mg/kg | 8.5 μg per g | 4.1 | 16.5 mg/kg | 1.4 | 11.50 μg per g
2 | CCOc1ccc(NC(c2ccc(Cl)cc2)C(Cl)(Cl)Cl)cc1 (stereo not shown) [VIII] | 0.22 ppm | 45 mg/kg | 13.0 μg per g | 3.5 | 0.26 ppm | 19.5 mg/kg | 4.1 μg per g | 4.8 | 37.5 mg/kg | 2.8 | 13.2 μg per g
3 | COc1ccc(C(Nc2ccc(Cl)cc2)C(Cl)(Cl)Cl)cc1 (stereo not shown) [V] | 0.068 ppm | 35.5 mg/kg | 12.0 μg per g | 3.0 | 0.12 ppm | 23 mg/kg | 10.5 μg per g | 2.2 | 55 mg/kg | 3.6 | 15.2 μg per g
4 | CCOc1ccc(C(Nc2ccc(C)cc2)C(Cl)(Cl)Cl)cc1 (stereo not drawn) [XI, α-trichloromethyl-p-ethoxybenzyl-p-methylaniline] | 0.073 ppm | 14 mg/kg | 4.4 μg per g | 3.2 | 0.085 ppm | 12.5 mg/kg | 2.5 μg per g | 5.0 | 7.7 mg/kg |  | 4.2 μg per g
5 | CCOc1ccc(C(Nc2ccc(OC)cc2)C(Cl)(Cl)Cl)cc1 (stereo not shown) [XIII] | 0.42 ppm | 41 mg/kg | 12.5 μg per g | 3.3 | 0.68 ppm | 23.5 mg/kg | 5.5 μg per g | 4.2 | 22 mg/kg | 1.8 | 12.5 μg per g
6 | CCOc1ccc(NC(c2ccc(C)cc2)C(Cl)(Cl)Cl)cc1 (stereo not shown) [XII] | 0.33 ppm | 70 mg/kg | 19.5 μg per g | 3.6 | 0.30 ppm | 35 mg/kg | 14.5 μg per g | 2.4 | 95 mg/kg | 2.2 | 42.5 μg per g
7 | CCOc1ccc(NC(c2ccc(OC)cc2)C(Cl)(Cl)Cl)cc1 (stereo not shown) [XIV] | 0.34 ppm | 37 mg/kg | 12.0 μg per g | 3.1 | 1.0 ppm | 30 mg/kg | 3.9 μg per g | 7.7 | 112 mg/kg | 5.6 | 20.0 μg per g
